# In PubChem BioAssay (NCI):
#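 At the GI50, growth is halved. The concentration for full growth arrest is given as TGI.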
# Legend:
# Assay in all cases: NCI tumour cell line growth inhibition, 384-well format
# TK-10 renal = test system: TK-10 renal
# NCI-H226 lung = test system: NCI-H226 lung
# UO-31 renal = test system: UO-31 renal
# MDA-MB-231 breast = test system: MDA-MB-231 breast
# NCI-H522 lung = test system: NCI-H522 lung
# KM12 colon = test system: KM12 colon
# SF-539 CNS = test system: SF-539 CNS
# U251 glioblastoma = test system: U251 glioblastoma
# PC-3 prostate = test system: PC-3 prostate
# OVCAR-3 ovarian = test system: OVCAR-3 ovarian
# HL-60(TB) leukemia = test system: HL-60(TB) leukemia
# RPMI-8226 leukemia = test system: RPMI-8226 leukemia
# A498 renal = test system: A498 renal
# SK-MEL-2 melanoma = test system: SK-MEL-2 melanoma
# MCF7 breast = test system: MCF7 breast
# HT29 colon = test system: HT29 colon
# HCC-2998 colon = test system: HCC-2998 colon
# CAKI-1 renal = test system: CAKI-1 renal
# UACC-62 melanoma = test system: UACC-62 melanoma
# LOX IMVI melanoma = test system: LOX IMVI melanoma
# HCT-116 colon = test system: HCT-116 colon
# SW-620 colon = test system: SW-620 colon
# CCRF-CEM leukemia = test system: CCRF-CEM leukemia
# SR leukemia = test system: SR leukemia
# SK-OV-3 ovarian = test system: SK-OV-3 ovarian
# MALME-3M melanoma = test system: MALME-3M melanoma
# NCI-H23 lung = test system: NCI-H23 lung
# NCI-H460 NSCLC = test system: NCI-H460 NSCLC
# MDA-MB-435 melanoma = test system: MDA-MB-435 melanoma
# OVCAR-5 ovarian = test system: OVCAR-5 ovarian
# SF-295 CNS = test system: SF-295 CNS
# K-562 leukemia = test system: K-562 leukemia
# SK-MEL-28 melanoma = test system: SK-MEL-28 melanoma
# T-47D breast = test system: T-47D breast
# NCI-H322M lung = test system: NCI-H322M lung
# MDA-MB-468 breast = test system: MDA-MB-468 breast
# NCI/ADR-RES ovarian = test system: NCI/ADR-RES ovarian
# BT-549 breast = test system: BT-549 breast
# RXF 393 renal = test system: RXF 393 renal
# COLO 205 colon = test system: COLO 205 colon
# IGROV1 ovarian = test system: IGROV1 ovarian
# HOP-62 NSCLC = test system: HOP-62 NSCLC
# SK-MEL-5 melanoma = test system: SK-MEL-5 melanoma
# SF-268 CNS = test system: SF-268 CNS
# OVCAR-8 ovarian = test system: OVCAR-8 ovarian
# UACC-257 melanoma = test system: UACC-257 melanoma
# SNB-19 CNS = test system: SNB-19 CNS
structure (smiles),measurement,setting,value
COCc1c(-c2cc3cc(C)cc(OC)c3s2)c2c(N)ncnn2c1CN1CCNC(=O)C1,GI50,TK-10 renal,7.97 µM
same,TGI,TK-10 renal,70.3 µM
same,GI50,NCI-H226 lung,1.26 µM
same,TGI,NCI-H226 lung,21.7 µM
same,GI50,UO-31 renal,9.39 µM
same,TGI,UO-31 renal,> 100 µM
same,GI50,MDA-MB-231 breast,5.63 µM
same,TGI,MDA-MB-231 breast,> 72.1 µM
same,GI50,NCI-H522 lung,3.66 µM
same,TGI,NCI-H522 lung,30.6 µM
same,GI50,KM12 colon,9.87 µM
same,TGI,KM12 colon,> 100 µM
same,GI50,SF-539 CNS,6.08 µM
same,TGI,SF-539 CNS,> 58.3 µM
same,GI50,U251 glioblastoma,12.1 µM
same,TGI,U251 glioblastoma,> 100 µM
same,GI50,PC-3 prostate,23.2 µM
same,TGI,PC-3 prostate,> 100 µM
same,GI50,OVCAR-3 ovarian,5.38 µM
same,TGI,OVCAR-3 ovarian,> 75.2 µM
same,GI50,HL-60(TB) leukemia,7.53 µM
same,TGI,HL-60(TB) leukemia,21.8 µM
same,GI50,RPMI-8226 leukemia,1.87 µM
same,TGI,RPMI-8226 leukemia,7.59 µM
same,GI50,A498 renal,3.32 µM
same,TGI,A498 renal,40.5 µM
same,GI50,SK-MEL-2 melanoma,4.38 µM
same,TGI,SK-MEL-2 melanoma,13.6 µM
same,GI50,MCF7 breast,5.56 µM
same,TGI,MCF7 breast,> 100 µM
same,GI50,HT29 colon,12 µM
same,TGI,HT29 colon,> 100 µM
same,GI50,HCC-2998 colon,19.1 µM
same,TGI,HCC-2998 colon,> 93.1 µM
same,GI50,CAKI-1 renal,3.41 µM
same,TGI,CAKI-1 renal,15.1 µM
same,GI50,UACC-62 melanoma,6.36 µM
same,TGI,UACC-62 melanoma,37 µM
same,GI50,LOX IMVI melanoma,5.57 µM
same,TGI,LOX IMVI melanoma,25.6 µM
same,GI50,HCT-116 colon,7.4 µM
same,TGI,HCT-116 colon,> 100 µM
same,GI50,SW-620 colon,3.27 µM
same,TGI,SW-620 colon,> 23.1 µM
same,GI50,CCRF-CEM leukemia,5.68 µM
same,TGI,CCRF-CEM leukemia,> 52.5 µM
same,GI50,SR leukemia,3.97 µM
same,TGI,SR leukemia,12.9 µM
same,GI50,SK-OV-3 ovarian,2.4 µM
same,TGI,SK-OV-3 ovarian,8.99 µM
same,GI50,MALME-3M melanoma,4.55 µM
same,TGI,MALME-3M melanoma,32.6 µM
same,GI50,NCI-H23 lung,4.13 µM
same,TGI,NCI-H23 lung,28.9 µM
same,GI50,NCI-H460 NSCLC,4.62 µM
same,TGI,NCI-H460 NSCLC,> 96.2 µM
same,GI50,MDA-MB-435 melanoma,11.8 µM
same,TGI,MDA-MB-435 melanoma,72.2 µM
same,GI50,OVCAR-5 ovarian,10.3 µM
same,TGI,OVCAR-5 ovarian,> 79.5 µM
same,GI50,SF-295 CNS,18.2 µM
same,TGI,SF-295 CNS,> 100 µM
same,GI50,K-562 leukemia,20.1 µM
same,TGI,K-562 leukemia,> 100 µM
same,GI50,SK-MEL-28 melanoma,28.7 µM
same,TGI,SK-MEL-28 melanoma,> 100 µM
same,GI50,T-47D breast,15.1 µM
same,TGI,T-47D breast,> 94.7 µM
same,GI50,NCI-H322M lung,3.89 µM
same,TGI,NCI-H322M lung,36.8 µM
same,GI50,MDA-MB-468 breast,2.01 µM
same,TGI,MDA-MB-468 breast,7.39 µM
same,GI50,NCI/ADR-RES ovarian,> 100 µM
same,TGI,NCI/ADR-RES ovarian,> 100 µM
same,GI50,BT-549 breast,0.385 µM
same,TGI,BT-549 breast,5.45 µM
same,GI50,RXF 393 renal,1.19 µM
same,TGI,RXF 393 renal,8.32 µM
same,GI50,COLO 205 colon,12 µM
same,TGI,COLO 205 colon,> 100 µM
same,GI50,IGROV1 ovarian,4.19 µM
same,TGI,IGROV1 ovarian,36.8 µM
same,GI50,HOP-62 NSCLC,12.8 µM
same,TGI,HOP-62 NSCLC,> 100 µM
same,GI50,SK-MEL-5 melanoma,7.29 µM
same,TGI,SK-MEL-5 melanoma,31.3 µM
same,GI50,SF-268 CNS,8.67 µM
same,TGI,SF-268 CNS,> 81.6 µM
same,GI50,OVCAR-8 ovarian,17.8 µM
same,TGI,OVCAR-8 ovarian,> 100 µM
same,GI50,UACC-257 melanoma,29.9 µM
same,TGI,UACC-257 melanoma,> 100 µM
same,GI50,SNB-19 CNS,18.5 µM
same,TGI,SNB-19 CNS,> 100 µM
